Measured values taken from patent US7012095B2, “Compounds for modulating cell proliferation” (HSC Research and Development Limited, priority 2000, dated 2006).

Legend:
Ph+ ALL cells = assay: Killing of Philadelphia positive ALL cells in methylcellulose colony culture; assay type: cell-based, human
Description: Ph+ ALL cells were plated in 1 ml volumes, in the absence of exogenous growth factors, into 35 mm petri dishes (Nunc, Gibco) containing alpha MEM (Gibco) plus 10% FCS (Cansera Rexdale, ON.) in 0.9% (vol/vol) methylcellulose (Fluka, Switzerland) with the indicated concentrations of CR4. Cultures were set at 37° C., 5% CO2 in a humidified atmosphere. Colonies consisting of more than 20 cells were counted at 12 days or earlier using an inverted microscope.
ALL cells were plated in 1 ml volumes, in the absence of exogenous growth factors, into 35 mm petri dishes (Nunc, Gibco) containing alpha MEM (Gibco) plus 20% FCS (Cansera Rexdale, ON.) in 0.9% (vol/vol) methylcellulose (Fluka, Switzerland) and the indicated concentrations of compound. Cultures were set at 37° C., 5% CO2 in a humidified atmosphere. Colonies consisting of more than 20 cells were counted at 12 days or earlier using an inverted microscope.
ALL cells were plated in 1 ml volumes, in the absence of exogenous growth factors, into 35 mm petri dishes (Nunc, Gibco) containing alpha MEM (Gibco) plus 20% FCS (Cansera Rexdale, ON.) in 0.9% (vol/vol) methylcellulose (Fluka, Switzerland) and the indicated concentrations of CR24. Cultures were set at 37° C., 5% CO2 in a humidified atmosphere. Colonies consisting of more than 20 cells were counted at 9 days or earlier using an inverted microscope. […]

normal bone marrow cells [1] = assay: CFU-GEMM assay, normal bone marrow differentiation in culture; assay type: cell-based; conditions: 14 days
Description: The CFU-GEMM assay was performed according to Fauser and Messner (1978, Blood, 52(6) 143–8) and Messner and Fausser (1980, Blut, 41(5) 327–33) with some variations. In brief, heparinized bone marrow cells were layered over Percoll (1.077 gm/ml) (Pharmacia Fine Chemical, Piscataway N.J.) and centrifuged at 400 g at 4° C. for 10 minutes to remove neutrophils and RBCs. The fractionated BM cells at 2×10^5 cells/ml were cultured in IMDM (OCI, Toronto) containing 0.9% (vol/vol) methylcellulose supplemented with 30% FCS (Cansera Rexdale, ON.) or normal human plasma, a cocktail of cytokines containing G-CSF (10 ng/ml, Amgen), IL-3 (40 U/ml, Immunex), MGF (50 ng/ml, Immunex), Erythropoietin (2 u/ml, Epprex) or TPO (10 ng/ml, Amgen), 5×10^−5M β-2-mercaptoethanol and the specified concentration of CR4. The culture mixture was plated in 1 ml volumes into 35 mm petri dishes and incubated at 37° C., 5% CO2 in a humidified atmosphere. All cultures were evaluated at 14 days for the number of BFU-E colonies (defined as aggregates of more than 500 hemoglobinized cells or, 3 or more erythroid subcolonies), CFU-GM colonies (defined as granulocyte or monocyte-macrophage cells or both), CFU-Meg colonies (comprising 4 or more megakaryocytes) and CFU-GEMM colonies (a mixed population comprising of all elements).
The CFU-GEMM assay was performed according to Fauser and Messner (1978, Blood, 52(6) 1243–8) and Messner and Fausser (1980, Blut, 41(5) 327–33) with some variations. In brief, heparinized bone marrow cells were layered over Percoll (1.077 gm/ml) (Pharmacia Fine Chemical, Piscataway N.J.) and centrifuged at 400 g at 4° C. for 10 minutes to remove neutrophils and RBCs. […] All cultures were evaluated at 14 days for the number of BFU-E colonies (defined as aggregates of more than 500 hemaglobinized cells or, 3 or more erythroid subcolonies) and CFU-C colonies (defined as granulocyte or monocyte-macrophage cells or both).
The CFU-GEMM assay was performed according to Fauser and Messner (1978, Blood, 52(6) 1243–8) and Messner and Fausser (1980, Blut, 41(5) 327–33) with some variations (British Journal of Haematology, 1992, 80, p40–48). […] All cultures were evaluated at 14 days for the number of BFU-E colonies (defined as aggregates of more than 500 hemoglobinized cells or, 3 or more erythroid subcolonies) and CFU-C colonies (defined as granulocyte or monocyte-macrophage cells or both).

[2] = test system: variety of cancer cells (ALL, Philadelphia positive ALL, acute myeloid leukemia, myeloma, B-lineage lymphoma); assay: Cancer cell growth in culture, summary statements; assay type: cell-based; conditions: for efficacy against a variety of cell types (Acute Lymphoblastic Leukemia, Philadelphia positive Leukemia, Acute Myeloid Leukemia): in culture
normal bone marrow cells [3] = assay: In vitro purging of normal bone marrow; assay type: cell-based; conditions: 50 μM, seven hours exposure, FIG. 21
Description: Heparinized bone marrow cells were layered over Percoll (1.077 gm/ml) (Pharmacia Fine Chemical, Piscataway N.J.) and centrifuged at 400 g at 4° C. for 10 minutes to remove neutrophils and RBCs.
For the purging process, the cells were resuspended at 1×10^6/ml in complete medium with or without 50 μM CR4. The cells were incubated with the CR4 for two and a half hours at 37° C., 5% CO2. At the end of this period the cells were thoroughly washed in medium to remove CR4 and then cultured at 2×10^5 cells/ml in IMDM (OCI, Toronto) containing 0.9% (vol/vol) methylcellulose supplemented with 30% FCS (Cansera Rexdale, ON.) or normal human plasma, a cocktail of cytokines containing G-CSF (10 ng/ml, Amgen), IL-3 (40 U/ml, Immunex), MGF (50 ng/ml, Immunex), Erythropoietin (2 u/ml, Epprex) or TPO (10 ng/ml, Amgen) and 5×10^−5M b-2-mercaptoethanol. The culture mixture was plated in 1 ml volumes into 35 mm petri dishes and incubated at 37° C., 5% CO2 in a humidified atmosphere. All cultures were evaluated at 14 days for the number of BFU-E colonies (defined as aggregates of more than 500 hemaglobinized cells or, 3 or more erythroid subcolonies), CFU-C colonies (defined as granulocyte or monocyte-macrophage cells or both) and CFU-GEMM colonies (a mixed population comprising of all elements).
For the purging process, the cells were resuspended at 1×10^6/ml in complete medium with or without 50 μM CR11. The cells were incubated with the tryrphostin for seven hours at 37° C., 5% CO2. At the end of this period the cells were thoroughly washed in medium to remove CR11 and then cultured at 2×10^5 cells/ml in IMDM (OCI, Toronto) containing 0.9% (vol/vol) methylcellulose supplementd with 30% FCS (Cansera Rexdale, ON.) or normal human plasma, a cocktail of cytokines containing G-CSF (10 ng/ml, Amgen), IL-3 (40 U/ml, Immunex), MGF (50 ng/ml, Immunex), Erythropoietin (2 u/ml, Epprex) or TPO (10 ng/ml, Amgen) and 5×10^−5M β-2-mercaptoethanol. The culture mixture was plated in 1 ml volumes into 35 mm petri dishes and incubated at 37° C., 5% CO2 in a humidified atmosphere. All cultures were evaluated at 14 days for the number of BFU-E colonies (defined as aggregates of more than 500 hemoglobinized cells or, 3 or more erythroid subcolonies), CFU-C colonies (defined as granulocyte or monocyte-macrophage cells or both) and CFU-GEMM colonies (a mixed population comprising of all elements).

[4] = test system: Philadelphia positive ALL, AML and lymphoma; assay: In vitro / ex vivo purging assays, summary statements; assay type: cell-based

COc1cc(/C=C/C=C(\C#N)C(=O)NCCO)cc(OC)c1O [CR24, (E,E)-2-(β-Ethanolamido)-3-(3,5-dimethoxy-4-hydroxystyryl)acrylonitrile]
lowest concentration effective against Ph+ ALL cells (Ph+ ALL cells; colonies at 9 days, FIG. 10): 0.5 µM

N#C/C(=C\C=C\c1ccccc1)C(=O)NCc1ccc(O)c(O)c1 [CR19, (E,E)-2-(3,4 Dihydroxybenzylamido)-3-styrylacrylonitrile]
stimulatory effect on CFU-C colony formation (normal bone marrow cells [1]; 5 μM, FIG. 12): disappeared | efficacy against a variety of cell types (Acute Lymphoblastic Leukemia, Philadelphia positive Leukemia, Acute Myeloid Leukemia) [2]: highly effective | toxicity to cancer cells ([2]; low nanomolar doses, long term exposure): highly toxic

COc1cc(/C=C/C=C(\C#N)C(=O)NCc2ccc(O)c(O)c2)cc(OC)c1O [CR11, (E,E)-2-(3,4-Dihydroxybenzylamido)-3-(3,5-dimethoxy-4-hydroxystyryl)acrylonitrile]
inhibition of colony formation (normal bone marrow cells [3]; 14 days): did not result in any significant inhibition | BFU-E, CFU-GEMM and CFU-C colonies (normal bone marrow cells [3]): all normal | efficacy against a variety of cell types (Acute Lymphoblastic Leukemia, Philadelphia positive Leukemia, Acute Myeloid Leukemia) [2]: highly effective | efficacy as ex vivo purging agents [4]: effective

N#C/C(=C\C=C\c1ccc(O)c(O)c1)C(=O)NCc1ccc(O)c(O)c1 [CR21, (E,E)-2-(3,4 Dihydroxybenzylamido)-3-(3,4-dihydroxystyryl)acrylonitrile]
inhibition of BFU-E colony formation (normal bone marrow cells [1]; 20 μM, FIG. 13): inhibition | concentration inhibiting cell growth (Ph+ ALL cells; Ph+ ALL, colonies at 12 days, FIG. 8): 5 µM
